Key:
[1] = Walking speed assessment in a confined walkway; assay type: in vivo, rat
Procedure: (§1) In the following NOS inhibition experiments, animals were fed the indicated chemicals at 1 mg/ml in their drinking water ad libitum for four days prior to surgical division of the right Achilles tendon and throughout the post-operative experimental period, with the exception of experiment (c)*, where the drugs were given from the immediate post-operative period:
The animals were tested in a confined walkway with a dark shelter at the end. Each rat was held by its chest at the start of the walkway and then allowed to walk/run to the dark shelter at the end of the walkway. The time taken for the rat to cover the first half (21.5 cm) and the total length (43 cm) of the walkway was measured by individuals blinded to the treatment groups.

[2] = Body and muscle weight of rats fed the chemicals; assay type: in vivo, rat; conditions: for increase of weight: over 22 days, same dose
Procedure: as §1
(§2) (d) 3 weeks D-NAME (n=8), L-NAME (n=8), L-arginine (n=8), walking speed assessments at days 1,4,8,11,15,18,22, biomechanical assessment, muscle weight and autopsy at day 22.
All animals were weighed prior to surgery, at weekly intervals, and at sacrifice. After sacrifice the right triceps of rats fed D-NAME (n=8), L-NAME (n=8) or L-arginine (n=8) for three weeks was harvested, weighed for wet weight, lyophilized for dry weight and the water content calculated.

[3] = tested on: surgically divided Achilles tendon; experiment: Rat Achilles tendon healing model with nitric oxide synthase inhibition (morphology, biomechanics); assay type: in vivo; conditions: for distance separating the cut ends of the healing tendon (5-8 mm): 1 mg/ml in drinking water
Procedure: (§3) Rat model system: The rat achilles tendon model is used to test model compounds for biological activity i.e. the ability to promote or inhibit wound healing in vivo. As described in Example 1 below, one Achilles tendon in each rat is transsected surgically, and allowed to heal for periods ranging from 6 hours to 14 days. At each time point, the degree of healing is first assessed by measuring walking speed. The animals are then sacrificed and the tendons are excised and subjected to biomechanical testing and morphological and immunochemical analysis. NOS activity is measured in the excised tendons as above. Finally, body and muscle weight are monitored, and systemic and local toxicity are assessed by macroscopic and microscopic post-mortem examination. It will be understood by a skilled practitioner that any small mammal suitable for testing may be used, including rats, mice, rabbits, guinea pigs, and the like.
as §1
(a) 1 week D-NAME (n=9) vs L-NAME (n=11); walking speed and biomechanical analyses at day 7. […]
The rats were housed in beta-chip-lined plastic cages, two animals per cage, with a 12-hour light, 12 hour dark cycle in an animal care facility and fed rat chow and water ad libitum. Anaesthesia was achieved by intraperitoneal injection of 80 mg/kg ketamine (Park Davis, Morris Plains, N.J.) and 5 mg/kg xylazine (Miles Inc, Shawnee Mission, Kans.). All surgical procedures were performed under sterile conditions with the aid of 2.5x microsurgical loops. The surgical procedure was similar to that previously outlined. A 3 cm midline incision was made over the right Achilles tendon and the Achilles tendon and plantaris were isolated from the surrounding fascia. The underlying fascia was disrupted by spreading with a pair of small straight scissors. The tendinous portion of the plantaris was removed and the Achilles tendon was divided cleanly in its mid-substance, 0.5 cm from its calcaneal insertion with a scalpel. The skin was then sutured with two simple nylon sutures of 5-0 ethilon monofilament nylon on a PC-1 cutting needle (Ethicon Inc, N.J.). No operation was performed on the left, uninjured, hind limb. No cast or dressings were applied and the animals were unrestricted during the healing phase. The animals were sacrificed by CO2 inhalation.
One hundred and fifty two harvested lower limbs were placed in phosphate buffered saline (PBS), frozen and stored at −70° C. for an average of seven days prior to testing. On the day prior to testing the specimens were thawed. All extraneous soft and hard tissues were removed by blunt and sharp dissection from the Achilles tendon, formerly intramuscular tendinous fibers and the hind foot. Area measurements of the uninjured and sham operated tendons were made with an area micrometer (Mitutoyo, Tokyo, Japan). Length measurements were made with a 0.02 mm calibrated caliper (Draper, Japan). The formerly intramuscular tendinous fibers were then secured between two strips of white labelling tape with Thick Gel Super Glue® (Super Glue Corporation, N.Y.) such that the distal edge of the tape was 1.0 cm from the calcaneal insertion. The calcaneus was fixed at 45° in an adjustable rubber-gripped clamp (Panavise, Sparks, Nev.). Throughout the procedure care was taken to ensure that neither the Super Glue® nor the self curing plastic contaminated the tendon proper and the specimens were kept moist by application of PBS. Mechanical testing was carried out using a MTS 810 material test system (MTS Systems Corporation, PN). Each specimen underwent a constant velocity ramp to failure test at 1 cm/sec (≈100%/sec). […]

[4] = tested on: cultured bovine chondrocytes; experiment: NO2- release from cultured bovine chondrocytes (Greiss reaction); assay type: cell-based; conditions: for release of NO2-: endotoxin at 1 μg/ml, no constitutive release
[5] = Other systemic effects and post mortem examination; assay type: in vivo, rat; conditions: for systemic changes (palsies, coat, dyspnoea, death, post mortem lesions): 3 weeks feeding
Procedure: as §3, §1, §2

[6] = fed from the immediate post-operative period, day 15

## COC(=O)[C@@H](N)CCCNC(=N)N[N+](=O)[O-] [L-NAME, Nw-nitro-L-arginine methyl ester]
[1]; after day 11
  behavior and walking speed: progressively quieter, slower
[1]; [6]
  systemic change: walking speed: loss of walking speed
[1]; first week of treatment
  behavior or walking speed: no changes
[2]; 1 mg/ml in drinking water
  body weight over the first 15 days of treatment: either failed to gain weight or lost weight
[2]; by day 22, p<0.001
  lighter than initial preoperative weight: 30%
[2]; day 22, p<0.01
  loss in dry muscle weight (right triceps): 40%
  loss in wet muscle weight (right triceps): 30%
[2]; [6]
  systemic change: weight: weight loss
[3]
  distance separating the cut ends of the healing tendon (5-8 mm): did not change
[3]; L-NAME versus D-NAME fed rats
  microscopic appearance of the healing tissue (light microscopy): no subjective differences
[3]; day 7
  failure load of uninjured Achilles tendon constructs: unaffected
[3]; day 7, given orally 1 mg/ml in drinking water from four days prior to surgery, p<0.01 vs D-NAME
  inhibition of cross-sectional area of healing Achilles tendon: 30%
[3]; day 7, p<0.01
  reduction in failure load on the formerly divided side: 24%
[3]; day 15, given orally from four days prior to surgery, p<0.001
  inhibition of cross-sectional area of healing Achilles tendon: 50%
[3]; day 22, given orally from four days prior to surgery, p<0.05
  inhibition of cross-sectional area of healing Achilles tendon: 17%
[3]; [6]
  failure load: failed to show any changes
  tendon cross-sectional area: failed to show any changes
[3]; rat, in vivo
  toe displacement, maximum displacement, stiffness, energy, modulus or maximum stress of surgically divided or uninjured Achilles constructs: did not affect
[4]
  inhibition of endotoxin-induced NO2- production: completely inhibited
[5]; day 21, group of eight rats
  rats that died: Two
[5]; day 22, all rats
  post mortem examination findings: scant body fat, empty small intestines, myocardial lesions consistent with infarction and granular kidneys
[5]; from day 15
  rats that developed severe dyspnoea: ⅝
[5]; from day 15, all rats
  coat and peri-orbital changes: lost coat texture and developed peri-orbital rubor
[5]; from day 15, group of eight rats
  rats that developed motor palsies of upper or lower limbs: Four out of the eight

## TNF-α
[4]
  release of NO2-: 100 nmol NO2^−/106 cells/24 hours

## IL-1β: inflammatory mediator
[4]
  release of NO2-: 100 nmol NO2^−/106 cells/24 hours

## COC(=O)[C@H](N)CCCN=C(N)N[N+](=O)[O-] [D-NAME, Nw-nitro-D-arginine methyl ester]
[2]
  increase of weight: 30%
[5]
  systemic changes (palsies, coat, dyspnoea, death, post mortem lesions): failed to display any of the above changes

## N=C(N)NCCC[C@H](N)C(=O)O [L-arginine]
[2]; day 22
  effect on muscle weight: no effect
[2]
  increase of weight: 30%
[3]
  distance separating the cut ends of the healing tendon (5-8 mm): did not change
[5]
  systemic changes (palsies, coat, dyspnoea, death, post mortem lesions): failed to display any of the above changes

## O=C(O)CN(CCOCCOCCN(CC(=O)O)CC(=O)O)CC(=O)O [EGTA]
[4]
  inhibition of endotoxin-induced NO2- production: not inhibited

Source: patent US6747062B2, “Regulation of wound healing by nitric oxide” (New York Society for the Ruptured and Crippled Maintaining …, priority 1994, dated 2004)
